Data taken from patent US8466161B2, “Hydroxamate derivative, a production method for the same, and a pharmaceutical composition comprising the same” (Chong Kun Dang Pharmaceutical Corp., priority 2009, dated 2013).
pIC50: −log10 of the molar value.

Tests used:
in vivo = details: BALB/c nude, mouse, ip
[1] = test system: HCT116 (human colorectal carcinoma); assay: In vivo anticancer activity, HCT116 tumor transplantation model; set-up: species or system BALB/c nude mice (human tumor xenograft)
Procedure: (§1) Male BALB/c nude mice (4-week old) used in human tumor transplantation studies were purchased from Central Animal Laboratory Inc. (Korea) or Orient Bio Inc. (Korea). The animals were permitted ad libitum access to sterile feed and water in a sterile breeding system at 23+0.5° C.
(§2) For use in tumor transplantation studies, the human cancer cell lines HCT116 (human colorectal carcinoma, CCL-247), PC-3 (human prostate adenocarcinoma, CRL-1435), and A549 (human lung carcinoma, CCL-185) were purchased from ATCC (American Type Culture Collection, Rockville, Md., USA).
(§3) HCT116 cells were cultured in an air incubator under conditions of 37° C. and 5% CO2 using McCoy'SA medium (Gibco BRL) containing 10% heat-inactivated fetal bovine serum (Gibco BRL) and 1% antibiotics-antymycotics (Gibco BRL). Cell lines other than the HCT116 cell line were cultured in an air incubator under conditions of 37° C. and 5% CO2 using RPM1640 medium (Gibco BRL) containing 10% heat-inactivated fetal bovine serum (Gibco BRL) and 1% antibiotics-antymycotics (Gibco BRL).
(§4) Studies on the in vivo transplantation of human cancer cells were carried out in the following manner. Human cancer cells (HCT116, PC-3, and A549) that proliferated in vitro were injected subcutaneously into the abdominal region of BALB/c nude mice and allowed to proliferate in vivo. 20-25 days after the injection, the mice were sacrificed by cervical dislocation, and the solid cancer that proliferated in each of the mice was isolated aseptically, and connective or necrotic tissue and skin was removed therefrom, thus collecting a fresh cancer tissue. 50 mg of a fragment was taken aseptically from the cancer tissue and inserted into a 16-gauge trocar which was then transplanted subcutaneously into the upper abdominal region of mice.
(§5) 15-30 days after the human cancer cell lines have been transplanted into the BALB/c nude mice, only mice in which the cancer cells have proliferated to a given size were selected and used in the experiment. When the tumor size in each of the test groups reached 100-200 mm^3 after cancer cell transplantation, the experiment was started.
(§6) The anticancer effect of each drug was evaluated based on the inhibition rate (IR %) of tumor volume that indicates the tumor volume at reference date in comparison with control groups. […] Tumor size=(short diameter)×(long diameter)/2 I.R.(%)=[1−(mean tumor size of drug-administered group)/(mean tumor size of control group)]×100

HL60 cell line = assay: Inhibitory effect on growth of HL60 cell line (MTT); format: cell-based; details: Homo sapiens, HL-60, 72 h, 3 days culture
Procedure: In the culture of HL60 cells, 10% FBS-containing RPMI1640 medium was used Each of test substances was serially diluted in DMSO to a concentration of 10 mg/ml and serially diluted in PBS to a final concentration ranging from 100 μg/ml to 0.03 μg/ml. 20 μl (micro-liter) of each of the serially diluted test substances and 180 μl (micro-liter) of a medium containing 60×10^4 cells/ml were added to a 96-well plate and cultured under conditions of 37° C. and 5% CO2 for 3 days. After completion of the culture, 50 μl (micro-liter) of a solution of 1.25 mg/ml MTT (3-(4,5-dimethylthiazol-2-yl)-2,5-diphenyltetrazolium bromide) in PBS was added to each well of the plate and incubated at 37° C. for 3 hours. The formed formazan crystal was dissolved in 150 μl (micro-liter) of DMSO, and the absorbance at 570 nm was measured.

[2] = test system: A549 (human lung carcinoma); assay: In vivo anticancer activity, A549 tumor transplantation model; set-up: species or system BALB/c nude mice (human tumor xenograft); details: Table 20; 10 mg/kg/day, qd x 5, 3 wks
Procedure: as §1, §2, §3, §4, §5, §6

[3] = test system: PC-3 (human prostate adenocarcinoma); assay: In vivo anticancer activity, PC-3 tumor transplantation model; set-up: species or system BALB/c nude mice (human tumor xenograft); details: Table 21; 10 mg/kg/day, qd x 5, 3 wks
Procedure: as §1, §2, §3, §4, §5, §6

[4] = Table 19, 40 mg/kg/day, qd x 5, 2 wks, ip
[5] = Table 19, 60 mg/kg/day, qd x 5, 2 wks, ip

Compound	MTD at 2 weeks (in vivo)	IR (%) [1, 4]	IR (%) [1, 5]	pIC50 (HL60 cell line)	IR (%) ([1]; Table 19, 80 mg/kg/day, qd x 5, 2 wks, ip)	colon cancer (HCT 116) inhibitory effect compared to control drugs ([1]; ip, qd x 5, 2 wks, in words)	IR (%) [2]	IR (%) [3]	IR (%) ([1]; Table 18, 5 mg/kg/day, qd x 5, 2 wks, ip)	IR (%) ([1]; Table 18, 10 mg/kg/day, qd x 5, 2 wks, ip)	IR (%) ([1]; Table 19, 5 mg/kg/day, qd x 5, 2 wks, ip)	IR (%) ([1]; Table 19, 10 mg/kg/day, qd x 5, 2 wks, ip)	IR (%) ([1]; Table 22, 50 mg/kg/day, qd x 5, 3 wks, p.o)	IR (%) ([1]; Table 22, 120 mg/kg/day, qd x 5, 3 wks, p.o)
Cc1cc2cc(-c3ccc(N(CCCCCCC(=O)NO)C(=O)N4CCN(C)CC4)cc3)ccc2[nH]1 [Compound 334, N-(7-(hydroxyamino)-7-oxoheptyl)-4-methyl-N-(4-(2-methyl-1H-indol-5-yl)phenyl)piperazine-1-carboxamide]	60 mg/kg	47%	66%	7.70 to 8.00	–	–	–	–	–	–	–	–	–	–
CCN1CCN(C(=O)N(CCCCCCC(=O)NO)c2ccc(-c3ccc4cnn(C)c4c3)cc2)CC1 [Compound 336, 4-ethyl-N-(7-(hydroxyamino)-7-oxoheptyl)-N-(4-(1-methyl-1H-indazol-6-yl)phenyl)piperazine-1-carboxamide]	80 mg/kg	56%	75%	7.00 to 7.30	78%	excellent inhibitory effects on colon cancer	–	–	–	–	–	–	–	–
Cc1[nH]c2ccccc2c1CCNCc1ccc(/C=C/C(=O)NO)cc1 [LBH 589, Panobinostat, reference compound]	10 mg/kg	–	–	7.30 to 7.70	–	–	58%	48%	40%	65%	40%	65%	0%	–
Nc1ccccc1NC(=O)c1ccc(CNc2nccc(-c3cccnc3)n2)cc1 [MGCD 0103, reference compound]	–	–	–	–	–	–	–	–	–	–	–	–	–	50%
